What was measured:
[1] = biological target: MAP/microtubule affinity-regulating kinase 3 (Homo sapiens) (UniProt P27448); experiment: Selectivity interaction (Kinase panel (literature)) EUB0001199aCl MARK3; details: at 1 µM
[2] = biological target: T1, Serine/threonine-protein kinase TAO3 (Homo sapiens) (UniProt Q9H2K8); experiment: Selectivity interaction (KinomeScan (DiscoverX)) EUB0001079a TAOK3; details: at 1 µM
T1 sequence (whole entry): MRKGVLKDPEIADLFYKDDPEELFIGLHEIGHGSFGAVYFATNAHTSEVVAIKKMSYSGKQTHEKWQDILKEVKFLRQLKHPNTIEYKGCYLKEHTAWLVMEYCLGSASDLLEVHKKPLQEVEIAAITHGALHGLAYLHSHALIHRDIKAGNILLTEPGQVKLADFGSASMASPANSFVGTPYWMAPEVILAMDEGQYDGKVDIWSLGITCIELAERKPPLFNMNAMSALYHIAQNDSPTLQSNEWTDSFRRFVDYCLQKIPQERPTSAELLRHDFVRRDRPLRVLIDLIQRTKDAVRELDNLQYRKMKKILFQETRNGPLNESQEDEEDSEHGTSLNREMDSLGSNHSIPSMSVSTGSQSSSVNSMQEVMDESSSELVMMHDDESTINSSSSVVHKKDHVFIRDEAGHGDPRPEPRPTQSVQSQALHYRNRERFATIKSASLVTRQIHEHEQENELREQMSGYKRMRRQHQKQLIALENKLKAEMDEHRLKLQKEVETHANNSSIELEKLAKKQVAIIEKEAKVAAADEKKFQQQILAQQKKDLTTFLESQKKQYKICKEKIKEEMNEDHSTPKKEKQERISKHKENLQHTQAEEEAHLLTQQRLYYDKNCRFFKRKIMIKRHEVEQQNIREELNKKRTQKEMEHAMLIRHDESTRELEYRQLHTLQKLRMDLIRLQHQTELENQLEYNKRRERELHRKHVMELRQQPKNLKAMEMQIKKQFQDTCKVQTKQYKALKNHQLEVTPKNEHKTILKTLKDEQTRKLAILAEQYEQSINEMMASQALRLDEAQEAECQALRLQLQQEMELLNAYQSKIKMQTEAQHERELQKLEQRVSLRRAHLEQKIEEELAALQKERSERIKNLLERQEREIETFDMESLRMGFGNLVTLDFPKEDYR

[3] = biological target: Serine/threonine-protein kinase WNK1 (Homo sapiens) (UniProt Q9H4A3); experiment: Selectivity interaction (Kinase panel (KiNativ target engagement assay in Jurkat cells)) EUB0001635a WNK1; format: cell-based; details: at 1 µM
Serine/threonine-protein kinase WNK1 (Homo sapiens), sequence (Q9H4A3 whole entry, looked up): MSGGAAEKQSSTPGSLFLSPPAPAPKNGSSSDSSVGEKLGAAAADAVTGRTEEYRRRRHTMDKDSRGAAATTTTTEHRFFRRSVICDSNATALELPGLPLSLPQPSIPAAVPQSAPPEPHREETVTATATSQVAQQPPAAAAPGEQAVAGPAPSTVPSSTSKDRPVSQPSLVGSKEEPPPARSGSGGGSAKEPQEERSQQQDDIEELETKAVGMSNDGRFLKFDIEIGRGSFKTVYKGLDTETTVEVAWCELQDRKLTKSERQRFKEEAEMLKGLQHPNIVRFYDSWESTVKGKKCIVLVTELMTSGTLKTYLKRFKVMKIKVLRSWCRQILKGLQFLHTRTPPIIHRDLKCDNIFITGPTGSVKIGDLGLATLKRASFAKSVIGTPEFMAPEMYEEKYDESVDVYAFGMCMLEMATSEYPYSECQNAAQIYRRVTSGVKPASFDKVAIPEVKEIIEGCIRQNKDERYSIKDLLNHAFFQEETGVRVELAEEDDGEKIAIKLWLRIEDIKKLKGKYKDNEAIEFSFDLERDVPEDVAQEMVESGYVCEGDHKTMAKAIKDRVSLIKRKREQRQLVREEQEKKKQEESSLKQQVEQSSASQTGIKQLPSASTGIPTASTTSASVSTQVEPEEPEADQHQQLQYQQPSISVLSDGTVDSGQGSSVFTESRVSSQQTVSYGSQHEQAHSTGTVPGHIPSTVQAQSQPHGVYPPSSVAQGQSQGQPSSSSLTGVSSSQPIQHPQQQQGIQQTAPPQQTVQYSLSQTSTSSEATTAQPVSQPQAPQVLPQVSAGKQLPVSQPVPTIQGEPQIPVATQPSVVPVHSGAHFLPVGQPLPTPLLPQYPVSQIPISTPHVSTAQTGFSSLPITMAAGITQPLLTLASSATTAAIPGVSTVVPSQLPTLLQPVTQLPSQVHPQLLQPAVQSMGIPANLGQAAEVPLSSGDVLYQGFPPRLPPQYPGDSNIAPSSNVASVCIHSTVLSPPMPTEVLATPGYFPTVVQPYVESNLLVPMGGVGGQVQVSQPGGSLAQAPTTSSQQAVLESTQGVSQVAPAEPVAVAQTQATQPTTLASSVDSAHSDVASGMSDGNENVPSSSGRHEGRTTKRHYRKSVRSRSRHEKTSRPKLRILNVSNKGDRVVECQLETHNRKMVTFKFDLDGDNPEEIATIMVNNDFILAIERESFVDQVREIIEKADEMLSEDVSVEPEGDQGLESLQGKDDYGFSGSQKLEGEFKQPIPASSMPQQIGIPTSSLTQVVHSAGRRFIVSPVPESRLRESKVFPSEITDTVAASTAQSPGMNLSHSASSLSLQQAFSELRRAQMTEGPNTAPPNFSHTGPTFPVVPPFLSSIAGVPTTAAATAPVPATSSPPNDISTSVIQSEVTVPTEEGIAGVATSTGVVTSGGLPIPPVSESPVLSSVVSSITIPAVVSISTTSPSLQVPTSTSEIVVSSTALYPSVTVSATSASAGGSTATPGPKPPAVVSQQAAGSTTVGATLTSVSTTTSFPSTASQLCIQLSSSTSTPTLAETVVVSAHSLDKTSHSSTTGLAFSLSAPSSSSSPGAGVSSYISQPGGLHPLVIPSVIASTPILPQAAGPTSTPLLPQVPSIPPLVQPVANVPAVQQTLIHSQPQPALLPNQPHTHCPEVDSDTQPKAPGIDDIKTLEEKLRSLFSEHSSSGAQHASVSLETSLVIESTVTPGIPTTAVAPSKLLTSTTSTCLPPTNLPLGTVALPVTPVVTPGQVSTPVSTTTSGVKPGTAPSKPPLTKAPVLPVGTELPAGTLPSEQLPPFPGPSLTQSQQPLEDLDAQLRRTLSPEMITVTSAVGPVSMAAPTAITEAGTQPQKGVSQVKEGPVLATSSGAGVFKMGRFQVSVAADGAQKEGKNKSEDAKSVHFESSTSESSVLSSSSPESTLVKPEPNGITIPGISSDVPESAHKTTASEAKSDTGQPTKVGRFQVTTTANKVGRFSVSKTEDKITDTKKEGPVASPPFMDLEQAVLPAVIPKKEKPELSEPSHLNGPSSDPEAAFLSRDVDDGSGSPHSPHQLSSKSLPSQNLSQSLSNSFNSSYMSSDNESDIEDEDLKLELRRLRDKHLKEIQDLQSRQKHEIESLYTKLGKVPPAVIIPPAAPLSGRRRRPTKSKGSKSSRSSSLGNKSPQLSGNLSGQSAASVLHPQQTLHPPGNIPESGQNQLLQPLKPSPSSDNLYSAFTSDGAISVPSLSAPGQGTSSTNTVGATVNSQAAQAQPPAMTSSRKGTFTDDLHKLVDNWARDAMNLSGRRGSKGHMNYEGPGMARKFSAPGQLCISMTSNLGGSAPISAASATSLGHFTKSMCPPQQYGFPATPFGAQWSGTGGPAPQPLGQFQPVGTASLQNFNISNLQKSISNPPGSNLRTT

[4] = biological target: Tyrosine-protein kinase Fyn (Homo sapiens) (UniProt P06241); details: at 10 µM
Tyrosine-protein kinase Fyn (Homo sapiens), sequence (P06241 2-537 limits assumed): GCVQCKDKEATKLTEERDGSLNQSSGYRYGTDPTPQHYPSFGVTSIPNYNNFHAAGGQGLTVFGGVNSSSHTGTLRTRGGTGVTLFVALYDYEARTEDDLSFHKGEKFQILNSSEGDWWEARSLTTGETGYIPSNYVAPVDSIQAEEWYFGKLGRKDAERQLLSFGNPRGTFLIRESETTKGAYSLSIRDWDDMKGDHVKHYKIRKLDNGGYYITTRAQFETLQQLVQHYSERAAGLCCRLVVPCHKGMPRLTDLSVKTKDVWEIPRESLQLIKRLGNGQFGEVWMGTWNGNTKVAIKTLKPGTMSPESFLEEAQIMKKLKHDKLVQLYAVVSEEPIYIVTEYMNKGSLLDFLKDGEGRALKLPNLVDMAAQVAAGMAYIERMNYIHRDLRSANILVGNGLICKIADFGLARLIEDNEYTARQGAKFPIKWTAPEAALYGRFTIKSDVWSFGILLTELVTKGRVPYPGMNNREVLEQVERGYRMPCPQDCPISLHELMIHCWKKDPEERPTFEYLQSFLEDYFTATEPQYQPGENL

[5] = biological target: Cyclin-dependent kinase 5 (Homo sapiens, UniProt Q00535); details: at 10 µM
Cyclin-dependent kinase 5, sequence (Q00535 whole entry, looked up): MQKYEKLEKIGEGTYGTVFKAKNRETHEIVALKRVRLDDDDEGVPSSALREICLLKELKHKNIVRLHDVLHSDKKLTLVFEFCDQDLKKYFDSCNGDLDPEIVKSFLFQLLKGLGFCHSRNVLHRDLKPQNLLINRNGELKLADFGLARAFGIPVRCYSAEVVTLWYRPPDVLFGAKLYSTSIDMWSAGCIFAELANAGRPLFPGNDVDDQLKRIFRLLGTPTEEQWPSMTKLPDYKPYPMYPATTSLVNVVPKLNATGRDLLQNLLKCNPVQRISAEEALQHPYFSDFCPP

[6] = biological target: Nucleosome-remodeling factor subunit BPTF (Homo sapiens, UniProt Q12830); experiment: Selectivity interaction (Bromodomain panel (DSF asssay)) EUB0000270b BPTF
[7] = biological target: Hepatocyte growth factor receptor (Homo sapiens, UniProt P08581); experiment: Selectivity interaction (Kinase panel (Invitrogen)) EUB0000639a MET; details: at 200 nM
[8] = biological target: Ribosomal protein S6 kinase alpha-4 (Homo sapiens) (UniProt O75676); experiment: Selectivity interaction (KinomeScan (DiscoverX)) EUB0000595a RPS6KA4; details: at 10 µM
[9] = biological target: T2, cGMP-dependent protein kinase 2 (Homo sapiens) (UniProt Q13237); experiment: Selectivity interaction (KinomeScan (DiscoverX)) EUB0000595a PRKG2; details: at 10 µM
T2 sequence (whole entry): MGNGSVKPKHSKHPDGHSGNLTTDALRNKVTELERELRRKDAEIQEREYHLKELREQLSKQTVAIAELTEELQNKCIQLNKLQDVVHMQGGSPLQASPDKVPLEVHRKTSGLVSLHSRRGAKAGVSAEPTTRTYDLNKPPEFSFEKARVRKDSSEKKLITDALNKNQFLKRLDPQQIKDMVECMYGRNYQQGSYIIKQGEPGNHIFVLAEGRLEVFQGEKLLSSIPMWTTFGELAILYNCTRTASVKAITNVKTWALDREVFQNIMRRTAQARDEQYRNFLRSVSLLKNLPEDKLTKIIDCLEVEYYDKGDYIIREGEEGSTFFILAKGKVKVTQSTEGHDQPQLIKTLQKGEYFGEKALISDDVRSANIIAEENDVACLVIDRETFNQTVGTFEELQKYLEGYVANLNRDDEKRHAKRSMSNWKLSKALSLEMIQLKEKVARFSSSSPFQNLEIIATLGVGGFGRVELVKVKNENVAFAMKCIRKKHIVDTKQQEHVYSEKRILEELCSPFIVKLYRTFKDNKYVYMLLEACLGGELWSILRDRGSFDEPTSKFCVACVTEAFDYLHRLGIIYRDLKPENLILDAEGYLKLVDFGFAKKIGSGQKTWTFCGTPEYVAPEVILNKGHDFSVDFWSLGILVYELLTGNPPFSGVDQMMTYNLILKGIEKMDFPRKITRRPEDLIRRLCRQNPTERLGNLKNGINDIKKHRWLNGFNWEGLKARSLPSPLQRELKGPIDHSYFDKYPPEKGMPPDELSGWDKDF

[10] = biological target: Calcium/calmodulin-dependent protein kinase kinase 1 (Homo sapiens) (UniProt Q8N5S9); experiment: Selectivity interaction (KinomeScan (DiscoverX)) EUB0000092b CAMKK1; details: at 10 µM
[11] = biological target: Cyclin-dependent kinase 13 (Homo sapiens, UniProt Q14004); experiment: Selectivity interaction (Ambit KINOMEscan and KiNATiv profiling in Jurkat cells) EUB0000090b CDK13; format: cell-based; details: at 1 µM
[12] = biological target: Ribosomal protein S6 kinase alpha-6 (Homo sapiens, UniProt Q9UK32); experiment: Selectivity interaction (KinomeScan (DiscoverX)) EUB0000618a RPS6KA6; details: at 10 µM
Ribosomal protein S6 kinase alpha-6, sequence (Q9UK32 whole entry): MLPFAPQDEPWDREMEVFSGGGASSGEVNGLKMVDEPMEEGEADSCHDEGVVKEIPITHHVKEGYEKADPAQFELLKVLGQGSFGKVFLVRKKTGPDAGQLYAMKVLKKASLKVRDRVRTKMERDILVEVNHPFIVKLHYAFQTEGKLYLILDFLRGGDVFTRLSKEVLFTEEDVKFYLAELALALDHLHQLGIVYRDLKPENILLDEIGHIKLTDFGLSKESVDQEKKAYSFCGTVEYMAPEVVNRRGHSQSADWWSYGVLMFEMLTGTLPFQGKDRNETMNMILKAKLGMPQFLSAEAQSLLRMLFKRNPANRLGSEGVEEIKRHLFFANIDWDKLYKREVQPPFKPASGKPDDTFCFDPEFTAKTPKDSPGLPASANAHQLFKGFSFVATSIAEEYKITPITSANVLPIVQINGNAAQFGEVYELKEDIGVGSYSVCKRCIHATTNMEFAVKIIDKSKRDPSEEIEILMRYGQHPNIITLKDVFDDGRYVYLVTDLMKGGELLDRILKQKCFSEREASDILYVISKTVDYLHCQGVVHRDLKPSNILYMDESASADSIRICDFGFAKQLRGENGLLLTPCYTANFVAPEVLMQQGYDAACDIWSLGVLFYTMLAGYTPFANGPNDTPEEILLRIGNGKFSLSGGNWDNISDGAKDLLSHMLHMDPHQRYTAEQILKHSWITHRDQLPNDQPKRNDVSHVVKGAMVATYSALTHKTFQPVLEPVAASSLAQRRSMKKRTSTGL

[13] = biological target: Serine/threonine-protein kinase NIM1 (Homo sapiens, UniProt Q8IY84); experiment: Selectivity interaction (KinomeScan (DiscoverX)) EUB0000655a NIM1K; details: at 10 µM
[14] = biological target: Serine/threonine-protein kinase WNK1 (Homo sapiens) (UniProt Q9H4A3); experiment: Selectivity interaction (KinomeScan (DiscoverX)) EUB0000695a WNK1; details: at 100 nM
[15] = biological target: Tyrosine-protein kinase JAK1 (Homo sapiens, UniProt P23458); experiment: Selectivity interaction (KinomeScan (DiscoverX)) EUB0000695a JAK1; details: at 100 nM
[16] = biological target: Serine/threonine-protein kinase 38 (Homo sapiens) (UniProt Q15208); experiment: Selectivity interaction (KinomeScan (DiscoverX)) EUB0000607a STK38; details: at 10 µM
[17] = biological target: Activin receptor type-1-like (Homo sapiens) (UniProt P37023); experiment: Selectivity interaction (KinomeScan (DiscoverX)) EUB0000607a ACVRL1; details: at 10 µM
Mu-type opioid receptor = Mu-type opioid receptor (Homo sapiens, UniProt P35372); experiment: Selectivity interaction (Panel of kinases, GPCRs, ion channels and transporters (enzymatic assay)) EUB0000223bCl OPRM1
[18] = biological target: Serine/threonine-protein kinase/endoribonuclease IRE2 (Homo sapiens) (UniProt Q76MJ5); experiment: Selectivity interaction (LanthaScreen Eu Kinase Binding Assay) EUB0001632a ERN2; details: at 10 µM
Serine/threonine-protein kinase/endoribonuclease IRE2 (Homo sapiens), sequence (Q76MJ5 35-926 limits assumed): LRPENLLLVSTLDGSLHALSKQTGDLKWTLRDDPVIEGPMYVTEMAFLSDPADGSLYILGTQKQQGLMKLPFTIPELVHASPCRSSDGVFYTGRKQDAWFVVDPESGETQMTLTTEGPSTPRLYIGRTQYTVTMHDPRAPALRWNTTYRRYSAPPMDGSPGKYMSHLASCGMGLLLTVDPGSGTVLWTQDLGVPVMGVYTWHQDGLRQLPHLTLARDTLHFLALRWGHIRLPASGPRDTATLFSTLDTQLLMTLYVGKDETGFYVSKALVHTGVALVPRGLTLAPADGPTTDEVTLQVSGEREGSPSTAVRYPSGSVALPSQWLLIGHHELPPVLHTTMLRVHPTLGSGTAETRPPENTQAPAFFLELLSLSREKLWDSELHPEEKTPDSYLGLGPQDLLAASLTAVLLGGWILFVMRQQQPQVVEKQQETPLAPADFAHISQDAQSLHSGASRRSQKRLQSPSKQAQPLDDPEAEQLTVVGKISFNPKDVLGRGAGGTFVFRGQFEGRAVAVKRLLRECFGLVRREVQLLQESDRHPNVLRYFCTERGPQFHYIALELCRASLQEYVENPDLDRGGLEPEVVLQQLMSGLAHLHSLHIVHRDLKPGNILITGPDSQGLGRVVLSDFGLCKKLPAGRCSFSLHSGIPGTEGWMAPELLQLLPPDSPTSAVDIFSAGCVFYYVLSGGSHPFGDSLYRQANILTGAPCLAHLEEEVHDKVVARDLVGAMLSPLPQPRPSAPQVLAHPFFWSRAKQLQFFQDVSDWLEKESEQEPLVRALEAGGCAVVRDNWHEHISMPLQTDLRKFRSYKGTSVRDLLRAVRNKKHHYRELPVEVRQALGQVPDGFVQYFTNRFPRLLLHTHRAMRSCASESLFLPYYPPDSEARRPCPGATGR

CN1Cc2nccc(-c3cn(C)nc3-c3ccc(F)cc3)c2C1=O
% of inhibition [1]: -2%

Nc1cnc(N2CCc3cc(S(=O)(=O)Nc4c(F)cc(Cl)cc4F)cc(N4CCCC4=O)c32)nc1 [TP-020n]
% of control [2]: 70%

C=CC(=O)Nc1ccc(C(=O)Nc2[nH]nc3c2CN(C(=O)N[C@H](CN(C)C)c2ccccc2)C3(C)C)cc1
% of engagement [3]: -16.1%

CCN(CC)CCCCNc1ncc2cc(-c3cc(OC)cc(OC)c3)c(NC(=O)NC(C)(C)C)nc2n1
% of control [4]: 100% | % of control [5]: 100%

Cc1cc(CN)cc(C)c1-c1ncn(C)c1-c1cncn1C
dTM [6]: -2.3 K

CC[C@@H]1[C@H](F)C(=O)N[C@@H]1COc1nccc2cc(C(N)=O)c(OC)cc12 [ZIMLOVISERTIB]
% of inhibition [7]: 2.16%

COCC(=O)NC/C=C/c1ccc2ncnc(Nc3ccc(Oc4ccc(C)nc4)c(C)c3)c2c1 [CP-724714]
% of control [8]: 100% | % of control [9]: 100%

CCC(=O)N1CCN(c2ccc(-n3c(=O)ccc4cnc5ccc(-c6cnc7ccccc7c6)cc5c43)cc2C(F)(F)F)CC1
% of control [10]: 80%

CN(C)C/C=C/C(=O)Nc1ccc(C(=O)N2CCCC(Nc3ncc(Cl)c(-c4c[nH]c5ccccc45)n3)C2)cc1 (centres undefined)
% of control [11]: 2.8%

O[C@H]1CC[C@H](Nc2ncc3nc(Nc4c(F)cc(F)cc4F)n([C@H]4CCOC4)c3n2)CC1
% of control [12]: 49%

CN(C)CCOc1ccc(-c2nc(-c3ccncc3)c(-c3ccc4c(c3)CC/C4=N\O)[nH]2)cc1
% of control [13]: 91%

Cc1cc(F)c(C(=O)Nc2cccc(-c3nncn3C(C)C)n2)cc1-n1cnc(C2CC2)c1
% of control [14]: 100% | % of control [15]: 93%

CNC(=O)Nc1ccc(-c2nc(N3CC4CCC(C3)O4)c3cnn(C4CCC5(CC4)OCCO5)c3n2)cc1
% of control [16]: 100% | % of control [17]: 100%

COc1cc(C(=O)N2CC[C@@H](O)[C@@H](N)C2)cc2nc(-c3cc4ccccc4n3CC3CC3)n(C)c12
pXC50 (Mu-type opioid receptor): < 4 M

Cn1cc(-n2cnc3c(NCc4nc5cc(Cl)c(Cl)cc5[nH]4)nc(N4CCOCC4)nc32)cn1
% of inhibition [18]: -30.9%
